The target of this test is T1, Androgen Receptor (Homo sapiens, UniProt P10275, T878A).
T1 construct: the AR gene was modified, using CRISPR/Cas9 editing, so the expressed AR protein included an 11 amino acid HiBiT tag; endogenous in cells; host or cells: clonal LnCaP-derived line, AR gene edited by CRISPR/Cas9
The test is described as follows: Androgen Receptor Degradation Assay (Nano-Glo HiBiT). The settings on record: LNCaP, 18 h, HiBiT-tagged AR in human LnCaP cells, read-out: mean asymptote max. The format is cell-based. The method, boiled down:
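LnCaP cells with CRISPR-knocked-in N-terminal HiBiT-tagged AR (10,000/well) treated 18 h at 37 °C with PROTACs over 11 threefold concentrations; lytic HiBiT luminescence normalised to DMSO (0%) and cell-free (100%) controls. Relative DC50 = 4-parameter fit inflection; absolute DC50 = 50% degradation interpolation; Dmax = maximum observed degradation.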

For 20 compounds, Dmax results are on record in patent US20250205344A1, “2,4-DIOXOTETRAHYDROPYRIMIDINYL DERATIVES AS DEGRONS IN PROTACS” (GLAXOSMITHKLINE INTELLECTUAL PROPERTY DEVELOPMENT LIMITED, priority 2022, published 2025).

Counter-ions that a name gives are not always drawn.

T1 sequence (P10275 whole entry T878A): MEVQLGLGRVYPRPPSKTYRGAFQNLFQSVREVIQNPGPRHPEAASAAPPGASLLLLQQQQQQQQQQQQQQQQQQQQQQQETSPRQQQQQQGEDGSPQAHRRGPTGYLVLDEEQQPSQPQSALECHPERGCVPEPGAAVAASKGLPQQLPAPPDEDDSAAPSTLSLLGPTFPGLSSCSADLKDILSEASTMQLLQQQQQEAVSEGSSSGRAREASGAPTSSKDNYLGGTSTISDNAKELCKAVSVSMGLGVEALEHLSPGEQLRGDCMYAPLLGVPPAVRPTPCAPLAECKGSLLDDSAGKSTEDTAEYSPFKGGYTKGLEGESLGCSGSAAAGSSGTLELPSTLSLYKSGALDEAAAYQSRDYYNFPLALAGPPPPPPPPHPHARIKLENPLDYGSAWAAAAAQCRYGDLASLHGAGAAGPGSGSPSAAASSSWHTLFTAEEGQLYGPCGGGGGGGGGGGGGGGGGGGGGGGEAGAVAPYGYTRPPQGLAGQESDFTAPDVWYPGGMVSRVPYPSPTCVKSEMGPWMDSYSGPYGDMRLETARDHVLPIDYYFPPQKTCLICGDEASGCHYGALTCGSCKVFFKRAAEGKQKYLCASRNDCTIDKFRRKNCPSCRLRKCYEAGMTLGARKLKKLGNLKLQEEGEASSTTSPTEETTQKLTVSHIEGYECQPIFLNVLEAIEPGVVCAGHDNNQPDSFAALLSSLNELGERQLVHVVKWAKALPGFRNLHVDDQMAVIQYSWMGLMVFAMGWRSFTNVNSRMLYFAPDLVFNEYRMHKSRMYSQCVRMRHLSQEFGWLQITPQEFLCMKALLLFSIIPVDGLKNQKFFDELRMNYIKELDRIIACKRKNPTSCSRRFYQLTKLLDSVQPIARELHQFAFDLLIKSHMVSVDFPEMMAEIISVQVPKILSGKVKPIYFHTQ
T1 sequence (Q96SW2 whole entry partner): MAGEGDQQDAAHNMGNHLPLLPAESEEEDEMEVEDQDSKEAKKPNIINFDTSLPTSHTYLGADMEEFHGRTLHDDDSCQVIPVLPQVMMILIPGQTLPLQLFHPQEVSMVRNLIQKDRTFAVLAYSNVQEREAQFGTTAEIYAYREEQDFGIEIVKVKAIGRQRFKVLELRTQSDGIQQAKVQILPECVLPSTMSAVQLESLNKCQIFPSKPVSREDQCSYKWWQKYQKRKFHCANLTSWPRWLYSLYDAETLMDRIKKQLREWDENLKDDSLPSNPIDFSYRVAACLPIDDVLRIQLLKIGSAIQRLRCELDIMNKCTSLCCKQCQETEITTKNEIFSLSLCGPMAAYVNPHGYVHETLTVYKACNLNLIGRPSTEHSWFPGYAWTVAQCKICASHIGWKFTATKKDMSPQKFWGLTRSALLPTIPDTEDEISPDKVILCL
T1 sequence (Q16531 whole entry partner): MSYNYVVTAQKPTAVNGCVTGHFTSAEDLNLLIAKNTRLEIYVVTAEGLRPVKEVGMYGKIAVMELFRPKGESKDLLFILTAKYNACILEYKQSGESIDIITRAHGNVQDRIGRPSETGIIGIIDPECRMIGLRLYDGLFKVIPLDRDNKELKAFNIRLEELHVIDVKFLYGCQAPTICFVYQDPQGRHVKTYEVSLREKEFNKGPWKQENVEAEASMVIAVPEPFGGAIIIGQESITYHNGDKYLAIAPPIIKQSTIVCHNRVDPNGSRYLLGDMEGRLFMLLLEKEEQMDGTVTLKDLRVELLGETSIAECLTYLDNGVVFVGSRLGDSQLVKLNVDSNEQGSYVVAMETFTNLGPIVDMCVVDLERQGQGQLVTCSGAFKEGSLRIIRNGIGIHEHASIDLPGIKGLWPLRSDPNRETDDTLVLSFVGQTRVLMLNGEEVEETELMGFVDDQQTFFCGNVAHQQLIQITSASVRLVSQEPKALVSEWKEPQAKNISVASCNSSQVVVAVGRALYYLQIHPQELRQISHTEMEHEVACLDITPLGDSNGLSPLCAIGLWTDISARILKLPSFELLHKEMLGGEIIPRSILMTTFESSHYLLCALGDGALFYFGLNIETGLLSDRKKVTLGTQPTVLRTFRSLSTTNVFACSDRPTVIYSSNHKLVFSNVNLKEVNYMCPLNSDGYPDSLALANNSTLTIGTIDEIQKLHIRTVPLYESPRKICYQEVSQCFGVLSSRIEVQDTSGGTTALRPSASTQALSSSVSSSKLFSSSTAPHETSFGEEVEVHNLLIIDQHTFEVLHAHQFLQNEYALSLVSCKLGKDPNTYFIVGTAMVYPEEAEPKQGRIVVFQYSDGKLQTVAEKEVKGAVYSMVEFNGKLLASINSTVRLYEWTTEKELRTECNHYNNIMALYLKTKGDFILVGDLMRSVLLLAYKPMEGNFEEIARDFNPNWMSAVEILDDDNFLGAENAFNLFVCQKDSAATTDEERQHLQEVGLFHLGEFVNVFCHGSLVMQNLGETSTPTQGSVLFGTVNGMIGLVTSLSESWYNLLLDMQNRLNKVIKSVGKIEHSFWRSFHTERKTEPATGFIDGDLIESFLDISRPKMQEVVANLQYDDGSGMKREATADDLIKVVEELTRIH

Take `N#Cc1ccc(O[C@H]2CC[C@H](NC(=O)c3ccc(N4CCC(CN5CCC(n6ncc7c(N8CCC(=O)NC8=O)nccc76)CC5)CC4)nn3)CC2)cc1Cl` [EAR51, N-((1r,4r)-4-(3-Chloro-4-cyanophenoxy)cyclohexyl)-6-(4-((4-(4-(2,4-dioxotetrahydropyrimidin-1(2H)-yl)-1H-pyrazolo[4,3-c]pyridin-1-yl)piperidin-1-yl)methyl)piperidin-1-yl)pyridazine-3-carboxamide]: the Dmax is ≥ 50%.

Regarding `N#Cc1ccc(O[C@H]2CC[C@H](NC(=O)c3ccc(N4CCC(CN5CCC(n6ncc7c(N8CCC(=O)NC8=O)cccc76)CC5)C4)nn3)CC2)cc1Cl` (some centres unmarked) [EAR152, N-((1r,4r)-4-(3-Chloro-4-cyanophenoxy)cyclohexyl)-6-(3-((4-(4-(2,4-dioxotetrahydropyrimidin-1(2H)-yl)-1H-indazol-1-yl)piperidin-1-yl)methyl)pyrrolidin-1-yl)pyridazine-3-carboxamide, formic acid salt], the Dmax was ≥ 50%.

With `N#Cc1ccc(O[C@H]2CC[C@H](NC(=O)c3ccc(N4CCC[C@H](CN5CCC(n6ncc7c(N8CCC(=O)NC8=O)cccc76)CC5)C4)nn3)CC2)cc1Cl` (single isomer, unassigned) [EAR136], the Dmax is ≥ 50%.

Turning to `CC1(C)CCN(c2ccc(C(=O)N[C@H]3CC[C@H](Oc4ccc(C#N)c(Cl)c4)CC3)nn2)CC1CN1CCC(n2ncc3c(N4CCC(=O)NC4=O)cccc32)CC1` (some centres unmarked) [EAR222, N-((1r,4r)-4-(3-chloro-4-cyanophenoxy)cyclohexyl)-6-(3-((4-(4-(2,4-dioxotetrahydropyrimidin-1(2H)-yl)-1H-indazol-1-yl)piperidin-1-yl)methyl)-4,4-dimethylpiperidin-1-yl)pyridazine-3-carboxamide], the Dmax was ≥ 50%.

`CC1(C)[C@H](NC(=O)c2cnc(N3CCC(CN4CCC(n5ccc6c(N7CCC(=O)NC7=O)cccc65)CC4)CC3)nc2)C(C)(C)[C@H]1Oc1ccc(C#N)c(Cl)c1` [EAR11, N-((1r,3r)-3-(3-Chloro-4-cyanophenoxy)-2,2,4,4-tetramethylcyclobutyl)-2-(4-((4-(4-(2,4-dioxotetrahydropyrimidin-1(2H)-yl)-1H-indol-1-yl)piperidin-1-yl)methyl)piperidin-1-yl)pyrimidine-5-carboxamide]: the Dmax was ≥ 50%.

For `N#Cc1ccc(O[C@H]2CC[C@H](NC(=O)c3cnc(N4CCC(CN5CCC(n6ccc7c(N8CCC(=O)NC8=O)cccc76)CC5)CC4)nc3)CC2)cc1Cl` [AR10, N-((1r,4r)-4-(3-Chloro-4-cyanophenoxy)cyclohexyl)-2-(4-((4-(4-(2,4-dioxotetrahydropyrimidin-1(2H)-yl)-1H-indol-1-yl)piperidin-1-yl)methyl)piperidin-1-yl)pyrimidine-5-carboxamide], the Dmax was ≥ 50%.

For `CC(C)n1ccc2c(N3CCC(=O)NC3=O)cc(C(=O)N3CCC4(CCCN(CCCCCc5ccc(C(=O)N[C@H]6CC[C@H](Oc7ccc(C#N)c(Cl)c7)CC6)cc5)C4)CC3)cc21` [EAR83, N-((1r,4r)-4-(3-Chloro-4-cyanophenoxy)cyclohexyl)-4-(5-(9-(4-(2,4-dioxotetrahydropyrimidin-1(2H)-yl)-1-isopropyl-1H-indole-6-carbonyl)-2,9-diazaspiro[5.5]undecan-2-yl)pentyl)benzamide], the Dmax was ≥ 50%.

As to `CN(CCCN1CCC(n2ncc3c(N4CCC(=O)NC4=O)cccc32)CC1)c1ccc(C(=O)N[C@H]2CC[C@H](Oc3ccc(C#N)c(Cl)c3)CC2)nn1` [EAR151, N-((1r,4r)-4-(3-Chloro-4-cyanophenoxy)cyclohexyl)-6-((3-(4-(4-(2,4-dioxotetrahydropyrimidin-1(2H)-yl)-1H-indazol-1-yl)piperidin-1-yl)propyl)(methyl)amino)pyridazine-3-carboxamide, formic acid salt], the Dmax was ≥ 50%.

Regarding `C[C@@H]1CN(c2ccc(C#N)c(Cl)c2)[C@@H](C)CN1C(=O)c1ccc(OCCCCCN2CCC(n3ccc4c(N5CCC(=O)NC5=O)cncc43)CC2)nc1` [EAR165, 2-Chloro-4-((2S,5R)-4-(6-((5-(4-(4-(2,4-dioxotetrahydropyrimidin-1(2H)-yl)-1H-pyrrolo[2,3-c]pyridin-1-yl)piperidin-1-yl)pentyl)oxy)nicotinoyl)-2,5-dimethylpiperazin-1-yl)benzonitrile], the Dmax is ≥ 50%.

As for `CC(C)n1ccc2c(N3CCC(=O)NC3=O)cc(C(=O)N3CCN(CCCCCCc4ccc(C(=O)N[C@H]5C(C)(C)[C@H](Oc6ccc(C#N)c(C(F)(F)F)c6)C5(C)C)cc4)CC3)cc21` [EAR87, N-((1r,3r)-3-(4-Cyano-3-(trifluoromethyl)phenoxy)-2,2,4,4-tetramethylcyclobutyl)-4-(6-(4-(4-(2,4-dioxotetrahydropyrimidin-1(2H)-yl)-1-isopropyl-1H-indole-6-carbonyl)piperazin-1-yl)hexyl)benzamide], the Dmax is ≥ 50%.

For `CC(C1CCN(c2ccc(C(=O)N[C@H]3CC[C@H](Oc4ccc(C#N)c(Cl)c4)CC3)nn2)CC1)N1CCC(n2ccc3c(N4CCC(=O)NC4=O)cncc32)CC1` (some centres unmarked) [EAR135, N-((1r,4r)-4-(3-Chloro-4-cyanophenoxy)cyclohexyl)-6-(4-(1-(4-(4-(2,4-dioxotetrahydropyrimidin-1(2H)-yl)-1H-pyrrolo[2,3-c]pyridin-1-yl)piperidin-1-yl)ethyl)piperidin-1-yl)pyridazine-3-carboxamide], the Dmax is ≥ 50%.

With `CC1(C)C(=O)N(c2ccc(C#N)c(C(F)(F)F)c2)C(=S)N1c1ccc(N2CCC(CN3CCC(n4ncc5c(N6CCC(=O)NC6=O)cncc54)CC3)CC2)cc1` [EAR98, 4-(3-(4-(4-((4-(4-(2,4-Dioxotetrahydropyrimidin-1(2H)-yl)-1H-pyrazolo[3,4-c]pyridin-1-yl)piperidin-1-yl)methyl)piperidin-1-yl)phenyl)-4,4-dimethyl-5-oxo-2-thioxoimidazolidin-1-yl)-2-(trifluoromethyl)benzonitrile], the Dmax was ≥ 50%.

Regarding `N#Cc1ccc(O[C@H]2CC[C@H](NC(=O)c3ccc(N4CCOC(CCN5CCC(n6ncc7c(N8CCC(=O)NC8=O)cccc76)CC5)C4)nn3)CC2)cc1Cl` (some centres unmarked) [EAR243, N-((1r,4r)-4-(3-chloro-4-cyanophenoxy)cyclohexyl)-6-(2-(2-(4-(4-(2,4-dioxotetrahydropyrimidin-1(2H)-yl)-1H-indazol-1-yl)piperidin-1-yl)ethyl)morpholino)pyridazine-3-carboxamide], the Dmax was ≥ 50%.

Take `N#Cc1ccc(O[C@H]2CC[C@H](NC(=O)c3ccc(N4CC(CN5CCC(n6ncc7c(N8CCC(=O)NC8=O)cccc76)CC5)C4)nn3)CC2)cc1Cl` [EAR154, N-((1r,4r)-4-(3-Chloro-4-cyanophenoxy)cyclohexyl)-6-(3-((4-(4-(2,4-dioxotetrahydropyrimidin-1(2H)-yl)-1H-indazol-1-yl)piperidin-1-yl)methyl)azetidin-1-yl)pyridazine-3-carboxamide, formic acid salt]: the Dmax is ≥ 50%.

Take `N#Cc1ccc(O[C@H]2CC[C@H](NC(=O)c3cccc(OC4CCN(C(=O)CN5CCC(n6ccc7c(N8CCC(=O)NC8=O)cccc76)CC5)CC4)c3)CC2)cc1Cl` [AR2, N-((1r,4r)-4-(3-Chloro-4-cyanophenoxy)cyclohexyl)-3-((1-(2-(4-(4-(2,4-dioxotetrahydropyrimidin-1(2H)-yl)-1H-indol-1-yl)piperidin-1-yl)acetyl)piperidin-4-yl)oxy)benzamide]: the Dmax was ≥ 50%.

With `CC(C)n1ccc2c(N3CCC(=O)NC3=O)cc(C(=O)NCCOCCN3CCN(c4ccc(C(=O)N[C@H]5CC[C@H](Oc6ccc(C#N)c(Cl)c6)CC5)nn4)CC3)cc21` [EAR76, N-(2-(2-(4-(6-(((1r,4r)-4-(3-Chloro-4-cyanophenoxy)cyclohexyl)carbamoyl)pyridazin-3-yl)piperazin-1-yl)ethoxy)ethyl)-4-(2,4-dioxotetrahydropyrimidin-1(2H)-yl)-1-isopropyl-1H-indole-6-carboxamide], the Dmax is ≥ 50%.

For the compound `N#Cc1ccc(O[C@H]2CC[C@H](NC(=O)c3ccc(N4CCC(CN5CC[C@@H](n6ccc7c(N8CCC(=O)NC8=O)cccc76)[C@@H](F)C5)CC4)nn3)CC2)cc1Cl` [EAR155, N-((1r,4r)-4-(3-Chloro-4-cyanophenoxy)cyclohexyl)-6-(4-(((3S,4R)-4-(4-(2,4-dioxotetrahydropyrimidin-1(2H)-yl)-1H-indol-1-yl)-3-fluoropiperidin-1-yl)methyl)piperidin-1-yl)pyridazine-3-carboxamide, hydrochloride], the Dmax was ≥ 50%.

Turning to `N#Cc1ccc(O[C@H]2CC[C@H](NC(=O)c3ccc(N4CCC(CN5CCC(n6ncc7c(N8CCC(=O)NC8=O)cc(C(F)(F)F)cc76)CC5)CC4)nn3)CC2)cc1Cl` [EAR161, N-((1r,4r)-4-(3-Chloro-4-cyanophenoxy)cyclohexyl)-6-(4-((4-(4-(2,4-dioxotetrahydropyrimidin-1(2H)-yl)-6-(trifluoromethyl)-1H-indazol-1-yl)piperidin-1-yl)methyl)piperidin-1-yl)pyridazine-3-carboxamide], the Dmax was ≥ 50%.

In the case of `N#Cc1ccc(O[C@H]2CC[C@H](NC(=O)c3ccc(N4CCC(CCN5CCC(n6ccc7c(N8CCC(=O)NC8=O)cccc76)CC5)CC4)nn3)CC2)cc1Cl` [EAR57, N-((1r,4r)-4-(3-Chloro-4-cyanophenoxy)cyclohexyl)-6-(4-(2-(4-(4-(2,4-dioxotetrahydropyrimidin-1(2H)-yl)-1H-indol-1-yl)piperidin-1-yl)ethyl)piperidin-1-yl)pyridazine-3-carboxamide hydrochloride], the Dmax was ≥ 50%.

Take `CC1(C)C(=O)N(c2ccc(C#N)c(C(F)(F)F)c2)C(=S)N1c1ccc(OCCCN2CCC(n3ccc4c(N5CCC(=O)NC5=O)cccc43)CC2)cc1` [EAR103, 4-(3-(4-(3-(4-(4-(2,4-Dioxotetrahydropyrimidin-1(2H)-yl)-1H-indol-1-yl)piperidin-1-yl)propoxy)phenyl)-4,4-dimethyl-5-oxo-2-thioxoimidazolidin-1-yl)-2-(trifluoromethyl)benzonitrile formate]: the Dmax was ≥ 50%.
